Data set [1] deals with patients with locally advanced or metastatic SCLC, ovarian and cervical cancers. The settings on record: in vivo.
For a further data set, the system named is patients. Conditions: topotecan monotherapy; cited from earlier work.
In data set [2] the test system is leukemia xenograft models. Conditions: cited from earlier work.
A short description of data set [3]: ME-344 plasma pharmacokinetics, Part 1 cycle 1, noncompartmental. The settings on record: ME-344 10 mg/kg IV over 30 min with topotecan, 13 patients, arithmetic mean.
For data set [4], the system named is patients with locally advanced or metastatic SCLC, ovarian cancer or cervical cancer. Briefly: Phase Ib Part 1: DLT evaluation and RP2D determination. Conditions: IV over 30 min days 1, 8, 15, 22 every 28 days; topotecan 4 mg/m^2 days 1, 8, 15. It counts as in vivo, human.
Data set [5] has as its system patients with advanced solid tumors. The settings on record: cited from earlier work.
Data set [6] relates to leukemia and lung cancer cell lines. The settings on record: cited from earlier work.
For data set [7] the following is noted: in vivo.

Values joined by “and” are separate entries in the source; they are usually repeats but may differ in a detail not shown here. Identical values can stand only once.

On to `CC[C@@]1(O)C(=O)OCc2c1cc1n(c2=O)Cc2cc3c(CN(C)C)c(O)ccc3nc2-1` [topotecan, reference compound], for which, in data set [1] (human), the “SAEs related to topotecan in the additional patients” value is listed as 6 SAEs and the “additional patients with SAEs related to topotecan” value is on record as 5 patients. The “grade 3/4 hematologic toxicity rate” value in the data set with patients is 16.7%.

Take `Cc1c(O)ccc2c1OC[C@@H](c1ccc(O)cc1)[C@H]2c1ccc(O)cc1` [ME-344]: in data set [2], the anti-tumor activity entry was “demonstrates anti-tumor activity”. For the same compound, in data set [3], the “t1/2 (terminal half-life)” value is 5.3 h and 5.301 h. In data set [1], the “patients with SAE related to ME-344 (grade 3 diarrhea)” value was 1 patient. Besides, the neurotoxicity result in data set [1] (iv, 10 mg/kg) is given as “neurotoxicity was not observed”. The “recommended phase II dose (RP2D) of ME-344 in combination with topotecan” value in data set [4] was found to be 10 mg/kg. In addition, in data set [5] (IV weekly), the “doses at which DLT (grade 3 or higher peripheral neuropathy) was observed” value was 15 to 20 mg/kg and > 10 mg/kg; the “recommended phase II dose (RP2D), single agent” value was 10 mg/kg. In addition, in data set [5], the “duration of prolonged stable disease” value was 31–52 weeks and the “patients with prolonged stable disease” value was 5 patients. Moreover, the “duration of partial response” value in data set [5] (single patient with SCLC) is recorded as 52 weeks. Moreover, the cytotoxicity in vitro result in data set [6] is recorded as “cytotoxic”. For the same compound, in data set [7], the “end-of-infusion concentration on Day 15 lower than on Day 1” value is “approximately 27%”.

Source of the values: PMC7466821 (Investigational new drugs, 2017).
